Source: patent US11452292B2, “Biofilm inhibitor and method of inhibiting biofilm” (NDSU Research Foundation, priority 2017, dated 2022)
Converted amounts (≈) assume the structure as drawn. Like-named read-outs stand apart in the source and are kept apart here.

How the values were obtained:
[1] = tested on: E. coli O157:H7; assay: Biofilm amounts in liquid beef broth at 10° C.; assay type: cell-based; details: for effect on bacterial cell counts and biofilm amounts: E. coli O157:H7 grown in liquid beef broth at 10° C.; for IC50: Escherichia coli, read-out: IC50 biofilm
[2] = tested on: E. coli O157:H7; assay: Bacterial cell number in liquid beef broth at 10° C.; assay type: cell-based; details: Escherichia coli, read-out: IC50 cell number
[3] = tested on: E. coli K-12; assay: Biofilm, supplement/control, TB medium; assay type: cell-based
[4] = tested on: flhD; assay: flhD, supplement/control, TB medium; assay type: cell-based, E. coli K-12
[5] = tested on: E. coli K-12; assay type: cell-based
[6] = tested on: C. sakazakii; assay: Planktonic growth (maximal velocity of OD600) in TSB; assay type: cell-based; details: Cronobacter sakazakii, 37° C.
Experimental: (§1) The IC50 values were calculated using […] software (Hitachi Solutions, San Bruno, Calif.).

[7] = tested on: S. marcescens; assay: as above; assay type: cell-based; details: Serratia marcescens, 30° C.
Experimental: as §1

[8] = tested on: C. sakazakii; assay: Biofilm amounts, CV assay, 24-well polystyrene plate; assay type: cell-based; details: Cronobacter sakazakii, 37° C.
Text: (§2) Data were expressed as OD600.

[9] = tested on: S. marcescens; assay: as above; assay type: cell-based; details: Serratia marcescens, 30° C.
Text: as §2

[10] = tested on: C. sakazakii; assay: Biofilm amounts, ATP assay, 24-well polystyrene plate; assay type: cell-based; details: Cronobacter sakazakii, 37° C.
[11] = tested on: S. marcescens; assay: as above; assay type: cell-based; details: Serratia marcescens, 30° C.
[12] = tested on: Y. enterocolitica; assay: Planktonic growth (maximal velocity of OD600) in TSB; assay type: cell-based, Yersinia enterocolitica; details: Yersinia enterocolitica, Y. enterocolitica, 37° C.
Experimental: as §1

[13] = tested on: Y. enterocolitica; assay: Biofilm amounts, CV assay, 24-well polystyrene plate; assay type: cell-based, Yersinia enterocolitica; details: Yersinia enterocolitica, Y. enterocolitica
Text: as §2

[14] = tested on: Y. enterocolitica; assay: Biofilm amounts, ATP assay, 24-well polystyrene plate; assay type: cell-based, Yersinia enterocolitica; details: Yersinia enterocolitica, Y. enterocolitica
[15] = tested on: Y. enterocolitica; assay: Motility assay on motility plates; assay type: cell-based, Yersinia enterocolitica; details: 5 mg/ml of AAA, 25° C., semi solid tryptone broth agar plates
[16] = tested on: flhD; assay: qPCR of mRNA transcript in response to AAA; details: 5 mg/ml AAA; biofilm associated and planktonic bacteria, 25 and 37° C.
[17] = tested on: virF; assay: qPCR of mRNA transcript in response to AAA; details: 5 mg/ml AAA; biofilm, both temperatures
[18] = tested on: ymoA; assay: qPCR of mRNA transcript in response to AAA; details: 5 mg/ml AAA
[19] = tested on: yadA; assay: qPCR of mRNA transcript in response to AAA; details: 5 mg/ml AAA
[20] = tested on: C. sakazakii; assay: Growth and biofilm assays taken together (growth, CV, ATP); details: Cronobacter sakazakii, read-out: IC50 values, range over growth, CV and ATP assays
[21] = tested on: S. marcescens; assay: as above; details: Serratia marcescens, read-out: IC50 values, range over growth, CV and ATP assays
[22] = tested on: Y. enterocolitica; assay: as above; details: Yersinia enterocolitica, read-out: IC50 values, range over growth, CV and ATP assays
[23] = tested on: S. aureus; assay: Biofilm amounts on PEA containing polyurethane relative to plain polyurethane; assay type: cell-based, Staphylococcus aureus; details: 5 wt. % PEA in polyurethane vs 0% PEA
Text: The instant inventors modified a material that is commonly used in clinical and food processing contexts, polyurethane, with β-phenylethylamine (PEA). To produce the PEA containing polyurethane (PU-PEA), food grade polyurethane (Zythane 7085A™) was impregnated with 0, 2.5, 5.0, and 10.0 weight percent PEA and a heat-melt extruded. At 10 wt. %, PEA formed aggregates and was not anymore uniformly distributed throughout the material (FIG. 17).
The biofilm inhibiting efficacy of 5 wt. % PEA was then tested against six bacterial strains (FIG. 18). E. coli AJW is non-pathogenic and was described as a good former of biofilm, P. aeruginosa is a pathogen that was described as a contaminant on conveyor belts, but also forms biofilm on urinary catheters. S. aureus causes staph infections and can form biofilm in intravenous catheters, E. coli O157:H7 has been studied in multiple foods and on numerous food processing surfaces, and the two E. coli UPEC strains are uropathogens that are commonly found on catheters. PU/PEA had reduced biofilm amounts relative to plain polyurethane for all strains tested. Reductions varied between 5 and 80% in depending on the bacterial pathogen. In particular, this initial PU-PEA material was able to reduce Staphylococcus aureus biofilm by 80% and biofilm of several other bacterial pathogens by 20 to 50%.

[24] = tested on: bacteria; assay: Live/dead assay with fluorescence dyes; assay type: cell-based; details: live/dead staining, preliminary data
Experimental: To determine whether the bacteria were being adversely affected by PEA, a live/dead assay was performed where the total bacterial population and the population of dead bacteria were stained with different fluorescence dyes. […] This supports the argument that the bacterial nutrients reduce biofilm amounts without killing the bacteria, therefore, reducing the likelihood of the development of resistance.

In the case of `O=P(O)(O)OCC(O)CO` (racemic) [D,L-glycerol phosphate], the “effect on bacterial cell counts and biofilm amounts” value [1] is reported as “inhibit bacterial cell counts and biofilm amounts”.

With `CCCCCCC(N)C(=O)O` (racemic) [D,L-α-aminocaprylic acid] the “effect on bacterial cell counts and biofilm amounts” value [1] was “inhibit bacterial cell counts and biofilm amounts”, the IC50 [1] was 1.84 mg/mL (≈ 11.6 mM) and the IC50 [2] was 1.96 mg/mL (≈ 12.3 mM). The “Ratio, biofilm (supplement/control)” value [3] was 0.85, the “Ratio, flhD (supplement/control)” value [4] was 0.55 and the “Ratio, growth (supplement/control)” value [5] was 0.26.

`CC(=O)CC(=O)O` [AAA, acetoacetate] showed an IC50 [6] of 20 mg/mL (≈ 196 mM), an IC50 [7] of 29 mg/mL (≈ 284 mM) and an IC50 [8] of 22 mg/mL (≈ 215 mM). For the same compound, the IC50 [9] was 35 mg/mL (≈ 343 mM), the IC50 [10] was 24 mg/mL (≈ 235 mM) and the IC50 [11] was 24 mg/mL (≈ 235 mM). It also gave an IC50 [12] of 11 mg/mL (≈ 108 mM), an IC50 ([13]; 25° C.) of 26 mg/mL (≈ 255 mM) and an IC50 ([13]; 37° C.) of 14 mg/mL (≈ 137 mM). The IC50 ([14]; 25° C.) was 18 mg/mL (≈ 176 mM), the IC50 ([14]; 37° C.) was 12 mg/mL (≈ 118 mM) and the “motility in the presence of AAA” value [15] was “about 0.25 mm/h”. The “reduction of mRNA levels of flhD” value [16] was “approximately 5 fold”, the “reduction of virF transcript” value [17] was “about 3 fold” and the “effect of AAA on ymoA transcription” value [18] was “no effect”. The “reduction of mRNA levels for yadA” value ([19]; biofilm bound bacteria at 25° C.) was roughly 10 fold, the “reduction of mRNA levels for yadA” value ([19]; planktonic bacteria at 37° C.) was “approximately 20 fold” and the IC50 [20] was 20 to 24 mg/mL (≈ 196 to 235 mM). For the same compound, the IC50 [21] was 24 to 35 mg/mL (≈ 235 to 343 mM) and the IC50 [22] was 11 to 14 mg/mL (≈ 108 to 137 mM).

With `NC(=O)C[C@@H](N)C(=O)O` [D-asparagine] the “effect on bacterial cell counts and biofilm amounts” value [1] was “inhibit bacterial cell counts and biofilm amounts”, the IC50 [1] was 0.2 mg/mL (≈ 1.51 mM) and the IC50 [2] was 0.62 mg/mL (≈ 4.69 mM). For the same compound, the “Ratio, biofilm (supplement/control)” value [3] was 1.07, the “Ratio, flhD (supplement/control)” value [4] was 1.2 and the “Ratio, growth (supplement/control)” value [5] was 0.9.

`N[C@@H]1C(O)O[C@H](CO)[C@@H](O)[C@@H]1O` (stereo partly drawn) [D-mannosamine] was tested, and the “effect on bacterial cell counts and biofilm amounts” value [1] was “inhibit bacterial cell counts and biofilm amounts”.

For `O=C[C@H](O)[C@@H](O)[C@H](O)CO` [D-xylose], the “effect on growth and biofilm amounts” value [3] was “inhibitors of growth and biofilm amounts”, the “Ratio, biofilm (supplement/control)” value ([3]; E. coli K-12, TB, 25° C.) was 0.59 and the “Ratio, flhD (supplement/control)” value ([4]; E. coli K-12, TB, 25° C.) was 0.56. For the same compound, the “Ratio, growth (supplement/control)” value ([5]; E. coli K-12, TB, 25° C.) was 0.91.

With `O=C[C@H](O)[C@H](O)[C@@H](O)CO` [L-lyxose] the “effect on bacterial cell counts and biofilm amounts” value [1] was “inhibit bacterial cell counts and biofilm amounts”, the IC50 [1] was 76 mg/mL (≈ 506 mM) and the IC50 [2] was 72 mg/mL (≈ 480 mM). For the same compound, the “Ratio, biofilm (supplement/control)” value [3] was 0.71, the “Ratio, flhD (supplement/control)” value [4] was 0.68 and the “Ratio, growth (supplement/control)” value [5] was 0.98.

For `NCCc1ccccc1` [PEA, β-phenylethylamine], the “reduction of Staphylococcus aureus biofilm” value [23] was 80%, the “viability of the bacteria” value [24] was “not impacted” and the “effect on bacterial cell counts and biofilm amounts” value [1] was “inhibit bacterial cell counts and biofilm amounts”. The IC50 [1] was 0.34 mg/mL (≈ 2.81 mM), the IC50 [2] was 0.32 mg/mL (≈ 2.64 mM) and the “Ratio, biofilm (supplement/control)” value [3] was 1.1. The “Ratio, flhD (supplement/control)” value [4] was 1.3 and the “Ratio, growth (supplement/control)” value [5] was 0.81.

In the case of `Cc1c[nH]c(=O)[nH]c1=O` [thymine], the “effect on bacterial cell counts and biofilm amounts” value [1] is reported as “inhibit bacterial cell counts and biofilm amounts”.

`CCC(=O)C(=O)O` [α-keto-butyric acid] was tested, and the “effect on growth and biofilm amounts” value [3] was “inhibitors of growth and biofilm amounts”, the “Ratio, biofilm (supplement/control)” value ([3]; E. coli K-12, TB, 25° C.) was 0.62 and the “Ratio, flhD (supplement/control)” value ([4]; E. coli K-12, TB, 25° C.) was 0.57. For the same compound, the “Ratio, growth (supplement/control)” value ([5]; E. coli K-12, TB, 25° C.) was 0.54.
